Values of other authors as cited in patent US10029020B2, “Fullerene compositions” (UNIVERSITEIT GENT, priority 2015, dated 2018).

Tests used:
rats = conditions: regular administration; Moussa et al., Biomaterials 2012

water solubility: 10^−8 ng/L
Structure (SMILES): c12c3c4c5c1c1c6c7c2c2c8c3c3c9c4c4c%10c5c5c1c1c6c6c%11c7c2c2c7c8c3c3c8c9c4c4c9c%10c5c5c1c1c6c6c%11c2c2c7c3c3c8c4c4c9c5c1c1c6c2c3c41 [Polymer C60, buckminsterfullerene (C60)]
lifespan of rats (rats): doubled
